Experiments:
[1] = molecular target: T1, Cytochrome P450 11B1, mitochondrial (Homo sapiens, UniProt P15538)
T1 sequence (P15538 whole entry): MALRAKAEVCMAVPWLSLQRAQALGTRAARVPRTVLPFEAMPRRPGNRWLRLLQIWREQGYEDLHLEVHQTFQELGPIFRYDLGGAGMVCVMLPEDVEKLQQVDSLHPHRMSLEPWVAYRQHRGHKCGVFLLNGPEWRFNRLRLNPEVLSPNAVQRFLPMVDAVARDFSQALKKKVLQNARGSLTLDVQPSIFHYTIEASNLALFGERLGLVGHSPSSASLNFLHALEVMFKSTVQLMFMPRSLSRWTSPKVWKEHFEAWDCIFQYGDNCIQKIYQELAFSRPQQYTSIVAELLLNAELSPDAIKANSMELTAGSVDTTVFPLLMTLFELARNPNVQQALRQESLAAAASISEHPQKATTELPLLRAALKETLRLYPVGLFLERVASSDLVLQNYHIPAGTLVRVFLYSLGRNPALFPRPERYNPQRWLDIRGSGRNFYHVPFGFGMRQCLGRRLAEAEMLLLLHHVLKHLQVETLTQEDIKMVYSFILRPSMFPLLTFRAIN
Description: Inhibition of human CYP11B1 expressed in hamster V79MZh cells using [1,2-3H]-11-deoxycorticosterone as substrate

[2] = molecular target: T2, Cytochrome P450 11B2, mitochondrial (Homo sapiens, UniProt P19099)
T2 sequence (P19099 whole entry): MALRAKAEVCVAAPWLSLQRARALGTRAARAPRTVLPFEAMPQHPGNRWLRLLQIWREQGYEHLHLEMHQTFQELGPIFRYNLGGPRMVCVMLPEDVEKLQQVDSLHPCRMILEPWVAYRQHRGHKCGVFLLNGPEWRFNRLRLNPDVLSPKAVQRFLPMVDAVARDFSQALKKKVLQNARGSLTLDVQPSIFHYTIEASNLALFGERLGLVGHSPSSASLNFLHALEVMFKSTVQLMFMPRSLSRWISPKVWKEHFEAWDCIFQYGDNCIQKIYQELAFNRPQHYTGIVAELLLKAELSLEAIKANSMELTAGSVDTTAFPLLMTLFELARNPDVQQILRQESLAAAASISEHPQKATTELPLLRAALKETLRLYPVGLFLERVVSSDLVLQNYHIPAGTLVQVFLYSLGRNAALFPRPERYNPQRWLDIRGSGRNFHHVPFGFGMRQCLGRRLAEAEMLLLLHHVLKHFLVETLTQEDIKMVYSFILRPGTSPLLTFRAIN
Description: Inhibition of human CYP11B2 expressed in hamster V79MZh cells using [1,2-3H]-11-deoxycorticosterone as substrate

Aromatase = molecular target: T3, Aromatase (Homo sapiens, UniProt P11511)
T3 sequence (P11511 whole entry): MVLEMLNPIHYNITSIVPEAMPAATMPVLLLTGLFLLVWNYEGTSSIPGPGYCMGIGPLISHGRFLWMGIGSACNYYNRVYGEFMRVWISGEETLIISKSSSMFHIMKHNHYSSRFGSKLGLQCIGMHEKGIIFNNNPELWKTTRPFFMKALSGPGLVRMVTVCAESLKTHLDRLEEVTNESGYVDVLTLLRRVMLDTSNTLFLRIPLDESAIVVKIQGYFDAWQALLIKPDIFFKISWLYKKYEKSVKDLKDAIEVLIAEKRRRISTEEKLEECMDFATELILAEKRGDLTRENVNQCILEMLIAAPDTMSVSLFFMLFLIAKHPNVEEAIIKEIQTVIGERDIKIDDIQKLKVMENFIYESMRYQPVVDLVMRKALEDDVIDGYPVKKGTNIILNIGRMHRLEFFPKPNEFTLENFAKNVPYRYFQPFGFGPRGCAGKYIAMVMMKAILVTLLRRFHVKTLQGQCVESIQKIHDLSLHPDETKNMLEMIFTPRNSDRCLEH
Description: Inhibition of human placental CYP19 using [1beta-3H]androstenedione as substrate by 3H2O-method

[3] = molecular target: T4, Steroid 17-alpha-hydroxylase/17,20 lyase (Homo sapiens, UniProt P05093)
T4 sequence (P05093 whole entry): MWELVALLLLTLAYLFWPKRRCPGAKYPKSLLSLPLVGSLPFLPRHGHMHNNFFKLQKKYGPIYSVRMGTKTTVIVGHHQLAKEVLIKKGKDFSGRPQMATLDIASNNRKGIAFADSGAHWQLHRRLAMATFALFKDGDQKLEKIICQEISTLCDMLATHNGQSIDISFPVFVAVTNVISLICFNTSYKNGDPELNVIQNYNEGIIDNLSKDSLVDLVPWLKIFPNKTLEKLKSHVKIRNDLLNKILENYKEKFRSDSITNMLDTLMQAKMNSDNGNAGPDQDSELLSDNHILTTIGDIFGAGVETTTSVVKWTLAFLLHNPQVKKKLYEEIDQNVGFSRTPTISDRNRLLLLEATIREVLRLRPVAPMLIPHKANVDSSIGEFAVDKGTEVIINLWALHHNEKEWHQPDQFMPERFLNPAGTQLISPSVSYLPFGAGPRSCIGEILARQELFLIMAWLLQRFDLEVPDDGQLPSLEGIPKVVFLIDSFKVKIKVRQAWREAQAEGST
Description: Inhibition of human CYP17 expressed in Escherichia coli co-expressing rat NADPH-P450-reductase using progesterone as substrate

SMILES	IC50 [1]	IC50 [2]	IC50 (Aromatase)	IC50 [3]
O=c1c2ccccc2oc2cccc(Cn3ccnc3)c12	99.1 nM	114 nM	–	–
O=c1c2ccccc2oc2c(Cl)ccc(Cn3ccnc3)c12	0.5 nM	3 nM	480 nM	260 nM
O=c1c2ccccc2oc2c(I)ccc(Cn3ccnc3)c12	19.2 nM	23.5 nM	460 nM	1350 nM
O=c1c2ccccc2oc2c(-c3ccccc3)ccc(Cn3ccnc3)c12	156 nM	104 nM	300 nM	1890 nM
COc1ccc(Cn2ccnc2)c2c(=O)c3ccccc3oc12	80.1 nM	41.1 nM	1100 nM	610 nM
CCOc1ccc(Cn2ccnc2)c2c(=O)c3ccccc3oc12	25.4 nM	14.8 nM	1970 nM	> 5000 nM
CC(C)Oc1ccc(Cn2ccnc2)c2c(=O)c3ccccc3oc12	92.5 nM	19.1 nM	400 nM	1250 nM
CC(C)CCOc1ccc(Cn2ccnc2)c2c(=O)c3ccccc3oc12	24.4 nM	25.2 nM	837 nM	> 5000 nM
CCC(C)Oc1ccc(Cn2ccnc2)c2c(=O)c3ccccc3oc12 (configuration not stated)	13.1 nM	15.3 nM	575 nM	> 5000 nM
O=c1c2ccccc2oc2c(OCC3CC3)ccc(Cn3ccnc3)c12	5.5 nM	24.1 nM	565 nM	> 5000 nM
O=c1c2ccccc2oc2c(OC3CCCC3)ccc(Cn3ccnc3)c12	268 nM	99.7 nM	260 nM	> 5000 nM
O=c1c2ccccc2oc2c(O)ccc(Cn3ccnc3)c12	416 nM	235 nM	170 nM	493 nM
Nc1ccc(Cn2ccnc2)c2c(=O)c3ccccc3oc12	785 nM	676 nM	6390 nM	1740 nM
O=c1c2ccccc2oc2c([N+](=O)[O-])ccc(Cn3ccnc3)c12	22.3 nM	31.1 nM	–	–
N#Cc1ccc(Cn2ccnc2)c2c(=O)c3ccccc3oc12	13.4 nM	19.5 nM	–	–
O=c1c2ccccc2oc2c(Br)ccc(Cn3ccnc3)c12	6.7 nM	8.5 nM	–	–
C[C@]12CC[C@H](O)CC1=CC[C@@H]1[C@@H]2CC[C@]2(C)C(c3cccnc3)=CC[C@@H]12 [ABIRATERONE]	–	–	> 5000 nM	–

From ChEMBL document CHEMBL2331307, “Modulation of cytochromes P450 with xanthone-based molecules: from aromatase to aldosterone synthase and steroid 11β-hydroxylase inhibition” (J Med Chem, 2013)
